According to publication PMC9744290, “Two apicoplast dwelling glycolytic enzymes provide key substrates for metabolic pathways in the apicoplast and are critical for Toxoplasma growth” (PLOS Pathogens, 2022):

Target: T1, PGK2 (Toxoplasma gondii, UniProt A0A7J6KGR7)
T1 construct: gene TGRH88_001020; His-SUMO fusion, E. coli BL21(DE3), His-tag resin
T1 sequence (A0A7J6KGR7 1-593): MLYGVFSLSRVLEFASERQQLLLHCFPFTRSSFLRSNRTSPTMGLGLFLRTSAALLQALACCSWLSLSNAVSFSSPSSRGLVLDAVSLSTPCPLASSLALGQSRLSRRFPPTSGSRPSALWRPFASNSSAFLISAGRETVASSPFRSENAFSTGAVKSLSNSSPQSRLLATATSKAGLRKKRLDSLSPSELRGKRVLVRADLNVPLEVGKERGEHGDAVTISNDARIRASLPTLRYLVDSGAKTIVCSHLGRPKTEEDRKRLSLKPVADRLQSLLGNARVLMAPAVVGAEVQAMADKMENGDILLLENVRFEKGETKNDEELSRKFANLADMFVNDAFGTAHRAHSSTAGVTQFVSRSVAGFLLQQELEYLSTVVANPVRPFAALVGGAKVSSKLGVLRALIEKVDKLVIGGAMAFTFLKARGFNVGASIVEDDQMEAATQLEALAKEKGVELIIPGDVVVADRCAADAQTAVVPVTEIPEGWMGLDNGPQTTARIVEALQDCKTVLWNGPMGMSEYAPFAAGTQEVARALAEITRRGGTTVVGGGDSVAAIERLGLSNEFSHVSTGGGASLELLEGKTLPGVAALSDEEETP
Assay: NADH-coupled colorimetric PGK assay kit, OD340
Type: biochemical
Conditions: reverse direction of PGK; 0-960 uM substrate, 5 ug/ml enzyme, 2 min

## O=C(O)[C@H](O)COP(=O)(O)O [3-phosphoglycerate]
  NADH-coupled colorimetric PGK assay kit, OD340: assayed with recombinant enzymes under different concentrations of 3-phosphoglycerate (3-PG)
